Test results reported in patent US5880128A, “Carbonyl piperazinyl and piperidinyl compounds” (Schering Corporation, priority 1996, dated 1999).

Molecular target: farnesyl protein transferase (FPT)
Assay: In vitro enzyme assay: inhibition of farnesyl protein transferase (FPT, FTase)
Format: biochemical, rat; human
Conditions: concentration of compound which inhibits 50% of FPT transferase
Excerpt: 1. In vitro enzyme assays: Inhibition of farnesyl protein transferase and geranylgeranyl protein transferase.
Both farnesyl protein transferase (FPT) and geranylgeranyl protein transferase (GGPT) I are partially purified from rat brain by ammonium sulfate fractionation followed by Q-Sepharose (Pharmacia, Inc.) anion exchange chromatography essentially as described by Yokoyama et al (Yokoyama, K., et al., (1991), A protein geranylgeranyltransferase from bovine brain: Implications for protein prenylation specificity, Proc. Natl. Acad. Sci USA 88: 5302-5306, the disclosure of which is incorporated herein by reference thereto). Human farnesyl protein transferase is also expressed in E. coli, using cDNA clones encoding both the α and β subunits. The methods used are similar to those published (Omer, C. et al., (1993), Characterization of recombinant human farnesyl protein transferase: Cloning, expression, farnesyl diphosphate binding, and functional homology with yeast prenyl-protein transferases, Biochemistry 32:5167-5176). Human farnesyl protein transferase is partially-purified from the soluble protein fraction of E. coli as described above. The farnesyl protein transferase inhibitors disclosed herein may inhibit both human and rat enzyme with similar potencies. Two forms of val^12 -Ha-Ras protein are prepared as substrates for these enzymes, differing in their carboxy terminal sequence. One form terminates in cysteine-valine-leucine-serine (Ras-CVLS) the other in cystein-valine-leucine-leucine (Ras-CVLL). Ras-CVLS is a substrate for the farnesyl protein transferase while Ras-CVLL is a substrate for geranylgeranyl protein transferase I. The cDNAs encoding these proteins are constructed so that the proteins contain an amino-terminal extension of 6 histidine residues. Both proteins are expressed in Escherichia coli and purified using metal chelate affinity chromatography. The radiolabelled isoprenyl pyrophosphate substrates, [^3 H]farnesyl pyrophosphate and [^3 H]geranylgeranyl pyrophosphate, are purchased from a commercial source, such as DuPont/New England Nuclear.
Several methods for measuring farnesyl protein transferase activity are known (Reiss et al 1990, Cell 62: 81; Schaber et al 1990, J. Biol. Chem. 265: 14701; Manne et al 1990, PNAS 8: 7541; and Barbacid & Manne 1993, U.S. Pat. No. 5,185,248). […] Filter mats are washed once with 6% TCA, 2% SDS and radioactivity is measured in a Wallac 1204 Betaplate BS liquid scintillation counter. Percent inhibition is calculated relative to the DMSO vehicle control. […]

IC50 [µM] | Compound
> 60 | O=C(c1ccccc1)C1CCN(C(=O)Cc2ccncc2)CC1
> 60 | O=C(c1ccc(F)cc1)C1CCN(C(=O)Cc2ccncc2)CC1
60 | O=C(c1ccc(Cl)cc1)C1CCN(C(=O)Cc2ccncc2)CC1
12.1 | Cc1c(C)c(C)c(C(=O)C2CCN(C(=O)Cc3ccncc3)CC2)c(C)c1C
